In patent US12576087B2, “Aryloxypiperidine pyrazole compounds as indoleamine 2,3-dioxygenase inhibitors” (Merck Sharp & Dohme LLC, priority 2018, dated 2026) one finds IC50 data, which are given here for 22 compounds.

The target of the first experiment is IDO1 (Homo sapiens, UniProt P14902). The experiment in a line: IDO1 Human Whole Blood Assay. Type of experiment: cell-based. To be noted: WBLD taken as whole blood; read-out: WBLD IC50. How it is done: Compounds to be tested were serially diluted in ten 3-fold steps in DMSO starting from 10 mM. 3 μL of compound dilutions or DMSO alone were then dispensed from the dilution plate into a polypropylene 96-well assay plate containing 97 μL of RPMI medium using an Echo 555 acoustic liquid handler (Labcyte). LPS and IFNγ was prepared in RPMI medium to a 10× of final conc. (1000 ng/mL), final concentration is 100 ng/mL.
Sequence of IDO1 (P14902 whole entry): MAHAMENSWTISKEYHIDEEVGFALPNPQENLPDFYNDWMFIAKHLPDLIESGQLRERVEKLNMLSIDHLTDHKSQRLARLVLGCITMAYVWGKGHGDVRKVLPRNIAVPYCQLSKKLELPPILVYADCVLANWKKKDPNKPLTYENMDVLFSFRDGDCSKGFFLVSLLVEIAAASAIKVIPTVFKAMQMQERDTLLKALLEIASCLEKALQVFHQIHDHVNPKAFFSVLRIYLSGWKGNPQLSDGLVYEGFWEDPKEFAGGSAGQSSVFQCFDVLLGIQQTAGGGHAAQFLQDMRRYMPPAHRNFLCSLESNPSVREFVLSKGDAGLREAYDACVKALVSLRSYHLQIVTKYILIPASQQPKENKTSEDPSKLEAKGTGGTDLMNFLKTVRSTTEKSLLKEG
Human whole blood was drawn in sodium heparin coated tubes from healthy internal donors. 240 μL of blood was transferred to each of the wells of a v-bottom 96 well plate. 30 μL of compound was transferred from intermediate dilution plate, and incubated for 15 min. 30 μL from stimulants was then transferred to blood and mixed thoroughly. Plate was covered with breathable membrane and incubated at 37° C. for overnight (18 h).
On day 2, isotope labeled standard solutions of kunurenine and tryptophan was made in water at 10× concentration and 30 μL was added to the blood at 3 μM final concentration. The assay plates were centrifuged at 300×G for 10 min with no brake to separate plasma from red blood cells. 60 μL of plasma samples was removed without disturbing red blood cells. Plasma was diluted with RPMI in 1:1 ratio and proteins were precipitated out with two volumes of Acetonitrile. The plates were centrifuged at 4000×G for 60 min. 20 μL of supernatant was carefully transferred to a 384 well plate containing 40 μL of 0.1% formic acid in water and analyzed by LC/MS/MS.
LC/MS/MS analyses were performed using Thermo Fisher's LX4-TSQ Quantum Ultra system. This system consists of four Agilent binary high-performance liquid chromatography (HPLC) pumps and a TSQ Quantum Ultra triple quadrupole MS/MS instrument. For each sample, 5 μL were injected onto an Atlantis T3 column (2.1 mm×150 mm, 3 μm particle size) from Waters. The mobile phase gradient pumped at 0.8 mL/min was used to elute the analytes from the column at 25° C. The elution started at 0% B increasing linearly to 25% B at 6.5 min, holding at 25% for 1 min, re-equilibrating to 10 min. Mobile phase A consisted of 0.1% formic acid in water. Mobile phase B consisted of 0.1% of formic acid in acetonitrile. Data were acquired in positive mode using a HESI interface. The operational parameters for the TSQ Quantum Ultra instrument were a spray voltage of 4000 V, capillary temperature of 380° C., vaporizer temperature 400° C., shealth gas 60 arbitrary units, Aux gas 20 arbitrary units, tube lens 85 and collision gas 1.2 mTorr. SRM chromatograms of kynurenine (Q1: 209.2>Q3:94.0) and internal standard (Q1: 215.3>Q3:98.2) were collected for 90 sec. The peak area was integrated by Xcalibur Quan software. The ratios between the kynurenine generated in the reaction and 2D6-Kynurenine spiked-in internal standard were used to generate percentage inhibition and IC50 values. Compounds were titrated and IC50's were calculated by 4 parameter sigmoidal curve fitting formula.
In the case of `Cc1cc(F)ccc1OC1CCN(C(=O)Cn2nc(C(=O)N3CC[C@H](O)[C@H](F)C3)c3c2CCCC3)CC1` (racemic) [Example 77, 1-[4-(4-fluoro-2-methyl-phenoxy)-1-piperidyl]-2-[3-[rac-(3R,4S)-3-fluoro-4-hydroxy-piperidine-1-carbonyl]-4,5,6,7-tetrahydroindazol-1-yl]ethanone], the IC50 (as a rule, the concentration that gives 50% inhibition) amounted to 0.267 µM. The same measure, in the same setting: with `O=C(CO)N1CCN(C(=O)c2nn(CC(=O)N3CCC(Oc4ccccc4Cl)C4CC43)c3c2[C@@H]2C[C@@H]2C3)CC1` (single isomer, unassigned) [Example 170] the figure was 0.102 µM; with `O=C(c1nn(CC(=O)N2CCC(Oc3ccccc3Cl)C3CC32)c2c1[C@@H]1C[C@@H]1C2)N1CCC(OCCO)CC1` (single isomer, unassigned) [Example 171], 0.15 µM; with `Cc1ccccc1OC1CCN(C(=O)Cn2nc(C(=O)N3CCN(C(=O)CO)CC3)c3c2C[C@H]2C[C@@H]32)CC1` [Example 2, 2-Hydroxy-1-(4-((3bR,4aR)-1-(2-oxo-2-(4-(o-tolyloxy)piperidin-1-yl)ethyl)-3b,4,4a,5-tetrahydro-1H-cyclopropa[3,4]cyclopenta[1,2-c]pyrazole-3-carbonyl)piperazin-1-yl)ethanone], 0.013 µM. With `C[C@@H]1C[C@H](Oc2ccccc2Cl)CCN1C(=O)Cn1nc(C(=O)N2CCN(C(=O)CO)CC2)c2c1C[C@H]1C[C@@H]21` [Example 4, 1-((2R,4R)-4-(2-chlorophenoxy)-2-methylpiperidin-1-yl)-2-((3bR,4aR)-3-(4-(2-hydroxyacetyl)piperazine-1-carbonyl)-3b,4,4a,5-tetrahydro-1H-cyclopropa[3,4]cyclopenta[1,2-c]pyrazol-1-yl)ethanone], the half-maximal inhibitory concentration (IC50) came to 0.315 µM. Still for that read-out and setting: the value for `CC(=O)NC1CCN(C(=O)c2nn(CC(=O)N3CCC(Oc4ccccc4Cl)CC3)c3c2CCCC3)CC1` [Example 6, N-(1-(1-(2-(4-(2-chlorophenoxy)piperidin-1-yl)-2-oxoethyl)-4,5,6,7-tetrahydro-1H-indazole-3-carbonyl)piperidin-4-yl)acetamide] was 0.596 µM. Still for that read-out and setting: the value for `C[C@@H]1C[C@H](Oc2ncccc2C(F)(F)F)CCN1C(=O)Cn1nc(C(=O)N2CCC(OCCO)CC2)c2c1C[C@H]1C[C@@H]21` [Example 8, 2-((3bR,4aR)-3-(4-(2-hydroxyethoxy)piperidine-1-carbonyl)-3b,4,4a,5-tetrahydro-1H-cyclopropa[3,4]cyclopenta[1,2-c]pyrazol-1-yl)-1-((2R,4R)-2-methyl-4-((3-(trifluoromethyl)pyridin-2-yl)oxy)piperidin-1-yl)ethanone] was 0.212 µM. The same measure, in the same setting: the value for `Cc1ccccc1OC1CCN(C(=O)Cn2nc(C(=O)N3CC[C@H](O)[C@H](F)C3)c3c2C[C@H]2C[C@@H]32)CC1` [Example 16, 2-((3bR,4aR)-3-((3R,4S)-3-fluoro-4-hydroxypiperidine-1-carbonyl)-3b,4,4a,5-tetrahydro-1H-cyclopropa[3,4]cyclopenta[1,2-c]pyrazol-1-yl)-1-(4-(o-tolyloxy)piperidin-1-yl)ethanone] was 0.0467 µM. As to `Cc1ccccc1OC1CCN(C(=O)Cn2nc(C(=O)N3CC[C@H](O)C[C@@H]3C)c3c2CCCC3)CC1` [Example 17, 2-(3-((2S,4S)-4-hydroxy-2-methylpiperidine-1-carbonyl)-4,5,6,7-tetrahydro-1H-indazol-1-yl)-1-(4-(o-tolyloxy)piperidin-1-yl)ethanone], the IC50 is 0.114 µM. For the compound `Cc1ccccc1OC1CCN(C(=O)Cn2nc(C(=O)N3CCC(O)CC3)c3c2CCCC3)CC1` [Example 18, 2-(3-(4-hydroxypiperidine-1-carbonyl)-4,5,6,7-tetrahydro-1H-indazol-1-yl)-1-(4-(o-tolyloxy)piperidin-1-yl)ethanone], the IC50 came to 0.064 µM. On the same count and under the same terms, with `Cc1ccccc1OC1CCN(C(=O)Cn2nc(C(=O)N3CCC(OCCO)CC3)c3c2CCC3)CC1` [Example 19, 2-(3-(4-(2-hydroxyethoxy)piperidine-1-carbonyl)-5,6-dihydrocyclopenta[c]pyrazol-1(4H)-yl)-1-(4-(o-tolyloxy)piperidin-1-yl)ethanone] the figure was 0.0273 µM; with `Cc1ccccc1OC1CCN(C(=O)Cn2nc(C(=O)N3CCC(OCCO)CC3)c3c2CCCC3)CC1` [Example 20, 2-(3-(4-(2-hydroxyethoxy)piperidine-1-carbonyl)-4,5,6,7-tetrahydro-1H-indazol-1-yl)-1-(4-(o-tolyloxy)piperidin-1-yl)ethanone], 0.02 µM.

For `Cc1ccccc1OC1CCN(C(=O)Cn2nc(C(=O)N3CCC(O)CC3)c3c2C[C@H]2C[C@@H]32)CC1` [Example 21, 2-((3bR,4aR)-3-(4-hydroxypiperidine-1-carbonyl)-3b,4,4a,5-tetrahydro-1H-cyclopropa[3,4]cyclopenta[1,2-c]pyrazol-1-yl)-1-(4-(o-tolyloxy)piperidin-1-yl)ethanone], the IC50 was 0.0402 µM. For the compound `Cc1ccccc1OC1CCN(C(=O)Cn2nc(C(=O)N3CCC(O)(C(F)F)CC3)c3c2CCCC3)CC1` [Example 22, 2-(3-(4-(difluoromethyl)-4-hydroxypiperidine-1-carbonyl)-4,5,6,7-tetrahydro-1H-indazol-1-yl)-1-(4-(o-tolyloxy)piperidin-1-yl)ethanone], the IC50 was 0.0924 µM.

On to `Cc1ccccc1OC1CCN(C(=O)Cn2nc(C(=O)N3CC[C@H](O)[C@@H](F)C3)c3c2CCCC3)CC1` [Example 23, 2-(3-((3S,4S)-3-fluoro-4-hydroxypiperidine-1-carbonyl)-4,5,6,7-tetrahydro-1H-indazol-1-yl)-1-(4-(o-tolyloxy)piperidin-1-yl)ethanone], for which the IC50 was 0.0229 µM.

Turning to `CC(=O)NC1CCN(C(=O)c2nn(CC(=O)N3CCC(Oc4ccccc4C)CC3)c3c2CCCC3)CC1` [Example 24, N-(1-(1-(2-oxo-2-(4-(o-tolyloxy)piperidin-1-yl)ethyl)-4,5,6,7-tetrahydro-1H-indazole-3-carbonyl)piperidin-4-yl)acetamide], the IC50 amounted to 0.314 µM. On to `Cc1ccccc1OC1CCN(C(=O)Cn2nc(C(=O)N3CCC(O)(CF)CC3)c3c2CCCC3)CC1` [Example 26, 2-(3-(4-(fluoromethyl)-4-hydroxypiperidine-1-carbonyl)-4,5,6,7-tetrahydro-1H-indazol-1-yl)-1-(4-(o-tolyloxy)piperidin-1-yl)ethanone], for which the IC50 was 0.0938 µM.

With `Cc1ccccc1OC1CCN(C(=O)Cn2nc(C(=O)N3CC[C@@H](O)[C@@H](F)C3)c3c2C[C@H]2C[C@@H]32)CC1` [Example 27, 2-((3bR,4aR)-3-((3S,4R)-3-fluoro-4-hydroxypiperidine-1-carbonyl)-3b,4,4a,5-tetrahydro-1H-cyclopropa[3,4]cyclopenta[1,2-c]pyrazol-1-yl)-1-(4-(o-tolyloxy)piperidin-1-yl)ethanone], the IC50 was determined as 0.0263 µM. Consider `CC(=O)NC1CCN(C(=O)c2nn(CC(=O)N3CCC(Oc4ccccc4C)CC3)c3c2[C@@H]2C[C@@H]2C3)CC1` [Example 29, N-(1-((3bR,4aR)-1-(2-oxo-2-(4-(o-tolyloxy)piperidin-1-yl)ethyl)-3b,4,4a,5-tetrahydro-1H-cyclopropa[3,4]cyclopenta[1,2-c]pyrazole-3-carbonyl)piperidin-4-yl)acetamide], for which the IC50 is 0.114 µM. Still for that read-out and setting: the value for `Cc1ccccc1OC1CCN(C(=O)Cn2nc(C(=O)N3CCC(F)(CO)CC3)c3c2CCC3)CC1` [Example 30, 2-(3-(4-fluoro-4-(hydroxymethyl)piperidine-1-carbonyl)-5,6-dihydrocyclopenta[c]pyrazol-1(4H)-yl)-1-(4-(o-tolyloxy)piperidin-1-yl)ethanone] was 0.188 µM.

Staying with this experiment, now noted: human whole blood, LPS and IFNγ 100 ng/mL, 18 h, kynurenine by LC/MS/MS; read-out: IDO1 human whole blood assay, IC50.
On to `NC(=O)CN1CCN(C(=O)c2nn(CC(=O)N3CCC(Oc4ccccc4Cl)CC3)c3c2CCCC3)CC1` [Example 5, 2-(4-(1-(2-(4-(2-chlorophenoxy)piperidin-1-yl)-2-oxoethyl)-4,5,6,7-tetrahydro-1H-indazole-3-carbonyl)piperazin-1-yl)acetamide], for which the IC50 is 0.543 µM. The same measure, in the same setting: the value for `CCOC(=O)c1nn(CC(=O)N2CC[C@@H](Oc3ccccc3Cl)C[C@H]2C)c2c1CCCC2` [Example 11, ethyl 1-(2-((2R,4R)-4-(2-chlorophenoxy)-2-methylpiperidin-1-yl)-2-oxoethyl)-4,5,6,7-tetrahydro-1H-indazole-3-carboxylate] was 0.378 µM; that for `CC(=O)NC1CCN(C(=O)c2nn(CC(=O)N3CCC(Oc4ccccc4C)CC3)c3c2[C@@H]2C[C@@H]2C3)CC1` [Example 29, N-(1-((3bR,4aR)-1-(2-oxo-2-(4-(o-tolyloxy)piperidin-1-yl)ethyl)-3b,4,4a,5-tetrahydro-1H-cyclopropa[3,4]cyclopenta[1,2-c]pyrazole-3-carbonyl)piperidin-4-yl)acetamide] was 0.625 µM.
